Tested on: wild-type HIV-1 strain IIIB
Assay: Anti-HIV-1 cell culture assay (EC50), XTT readout of cytopathic effect in MT2 cells
Type: cell-based
Conditions: Human immunodeficiency virus 1, IIIB, MT2, 120 h, read-out: protease inhibition activity represented by HIV EC50
Protocol: The assay is based on quantification of the HIV-1-associated cytopathic effect by a […] detection of the viability of virus-infected cells in the presence or absence of tested inhibitors. HIV-1-induced cell death was determined using a metabolic substrate 2,3-bis(2-methoxy-4-nitro-5-sulfophenyl)-2H-tetrazolium-5-carboxanilide (XTT) which is converted only by intact cells into a product with specific absorption characteristics as described by Weislow O S, Kiser R, Fine D L, Bader J, Shoemaker R H and Boyd M R, J. Natl. Cancer Inst. 81, 577 (1989) (herein incorporated by reference in its entirety for all purposes). […]
To determine the antiviral activity of the tested inhibitors, a substrate XTT solution (6 mL per assay plate) at a concentration of 2 mg/mL in a phosphate-buffered saline pH 7.4 was heated in water-bath for 5 min at 55° C. before 50 μl of N-methylphenazonium methasulfate (5 μg/mL) was added per 6 mL of XTT solution. […] Viability, as determined by the amount of XTT metabolites produced, was quantified spectrophotometrically by the absorbance at 450 nm (with subtraction of the background absorbance at 650 nm). […]

`CC(C)c1nc(CN(C)C(=O)N[C@@H](CCN2CCOCC2)C(=O)N[C@H](CC[C@H](Cc2ccccc2)NC(=O)OCc2cncs2)Cc2ccccc2)cs1` [Example S] showed an EC50 of over 30 µM.
